Measurements as given in US20230085307A1, “PYRIDAZINONE COMPOUND AND HERBICIDE” (NISSAN CHEMICAL CORPORATION, priority 2019, published 2023).

Test system: velvetleaf
Assay: Test Example 5: herbicidal effect by foliage application, plastic box (Table 20, symbol M)
Format: in vivo, velvetleaf (Abutilon theophrasti)
Conditions: foliage application, 320 g/ha, three weeks after application
Procedure, shortened: (§1)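 Plants sown in sterilized diluvial soil and grown 14 days in a greenhouse at 25° C to 30° C, then sprayed on the foliage with the compound's emulsion diluted in water to a predetermined herbicide amount. Injury to weeds and crops scored three weeks after application on a visual rating scale.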

SMILES | herbicidal effect grade, M: velvetleaf
CCCC(=O)Oc1c(C)nn(C)c(=O)c1-c1c(-c2ccc(SC)cc2)sc2ccccc12 [1-037] | 5 (Herbicidal rate of 90% or more (almost completely withered))
COc1ccc(-c2sc3ccccc3c2-c2c(O)c(C)nn(C)c2=O)cc1OC [1-072] | 5 (Herbicidal rate of 90% or more (almost completely withered))
Cc1nn(C)c(=O)c(-c2c(-c3ccc4c(c3)OCO4)sc3ccccc23)c1O [1-087] | 4 (Herbicidal rate of 70% or more and less than 90%)

Test system: chickweed
Assay: Test Example 5: herbicidal effect by foliage application, plastic box (Table 20, symbol P)
Format: in vivo, common chickweed (Stellaria media)
Conditions: foliage application, 320 g/ha, three weeks after application
Procedure, shortened: as §1

SMILES | herbicidal effect grade, P: chickweed
CCCC(=O)Oc1c(C)nn(C)c(=O)c1-c1c(-c2ccc(SC)cc2)sc2ccccc12 [1-037] | 5 (Herbicidal rate of 90% or more (almost completely withered))
COc1ccc(-c2sc3ccccc3c2-c2c(O)c(C)nn(C)c2=O)cc1OC [1-072] | 5 (Herbicidal rate of 90% or more (almost completely withered))
Cc1nn(C)c(=O)c(-c2c(-c3ccc4c(c3)OCO4)sc3ccccc23)c1O [1-087] | 5 (Herbicidal rate of 90% or more (almost completely withered))

Test system: barnyard grass
Assay: Test Example 4: herbicidal effect by soil treatment (Table 19, symbol H)
Format: in vivo, barnyard grass (Echinochloa crus-galli)
Conditions: amount of applied herbicide 320 g/ha
Procedure, shortened: (§2)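 Three weeks of greenhouse growth at 25° C. to 30° C. followed a uniform surface spray of water-diluted emulsion at a predetermined herbicide amount. Seeds had been sown beforehand under about 1.5 cm of sterilized diluvial soil. Grading followed criteria set out in an earlier test.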

SMILES | herbicidal effect rating, H: barnyard grass
CCCC(=O)Oc1c(C)nn(C)c(=O)c1-c1c(-c2ccc(SC)cc2)sc2ccccc12 [1-037] | 2 (Herbicidal rate of 20% or more and less than 40%)
COc1ccc(-c2sc3ccccc3c2-c2c(O)c(C)nn(C)c2=O)cc1OC [1-072] | 5 (Herbicidal rate of 90% or more (almost completely withered))
Cc1nn(C)c(=O)c(-c2c(-c3ccc4c(c3)OCO4)sc3ccccc23)c1O [1-087] | 4 (Herbicidal rate of 70% or more and less than 90%)

Test system: windgrass
Assay: Test Example 5: herbicidal effect by foliage application, plastic box (Table 20, symbol L)
Format: in vivo, windgrass (Apera spica-venti)
Conditions: foliage application, 320 g/ha, three weeks after application
Procedure, shortened: as §1

SMILES | herbicidal effect grade, L: windgrass
CCCC(=O)Oc1c(C)nn(C)c(=O)c1-c1c(-c2ccc(SC)cc2)sc2ccccc12 [1-037] | 0 (Herbicidal rate of 5% or less (almost no effect))
COc1ccc(-c2sc3ccccc3c2-c2c(O)c(C)nn(C)c2=O)cc1OC [1-072] | 1 (Herbicidal rate of 5% or more and less than 20%)
Cc1nn(C)c(=O)c(-c2c(-c3ccc4c(c3)OCO4)sc3ccccc23)c1O [1-087] | 0 (Herbicidal rate of 5% or less (almost no effect))

Test system: southern crabgrass
Assay: Test Example 5: herbicidal effect by foliage application, plastic box (Table 20, symbol F)
Format: in vivo, southern crabgrass (Digitaria ciliaris)
Conditions: foliage application, 320 g/ha, three weeks after application
Procedure, shortened: as §1

SMILES | herbicidal effect grade, F: southern crabgrass
CCCC(=O)Oc1c(C)nn(C)c(=O)c1-c1c(-c2ccc(SC)cc2)sc2ccccc12 [1-037] | 3 (Herbicidal rate of 40% or more and less than 70%)
COc1ccc(-c2sc3ccccc3c2-c2c(O)c(C)nn(C)c2=O)cc1OC [1-072] | 5 (Herbicidal rate of 90% or more (almost completely withered))
Cc1nn(C)c(=O)c(-c2c(-c3ccc4c(c3)OCO4)sc3ccccc23)c1O [1-087] | 5 (Herbicidal rate of 90% or more (almost completely withered))

Test system: wild oat
Assay: Test Example 4: herbicidal effect by soil treatment (Table 19, symbol I)
Format: in vivo, wild oat (Avena fatua)
Conditions: amount of applied herbicide 320 g/ha
Procedure, shortened: as §2

SMILES | herbicidal effect rating, I: wild oat
CCCC(=O)Oc1c(C)nn(C)c(=O)c1-c1c(-c2ccc(SC)cc2)sc2ccccc12 [1-037] | 0 (Herbicidal rate of 5% or less (almost no effect))
COc1ccc(-c2sc3ccccc3c2-c2c(O)c(C)nn(C)c2=O)cc1OC [1-072] | 2 (Herbicidal rate of 20% or more and less than 40%)
Cc1nn(C)c(=O)c(-c2c(-c3ccc4c(c3)OCO4)sc3ccccc23)c1O [1-087] | 0 (Herbicidal rate of 5% or less (almost no effect))

Test system: velvetleaf
Assay: Test Example 4: herbicidal effect by soil treatment (Table 19, symbol M)
Format: in vivo, velvetleaf (Abutilon theophrasti)
Conditions: amount of applied herbicide 320 g/ha
Procedure, shortened: as §2

SMILES | herbicidal effect rating, M: velvetleaf
CCCC(=O)Oc1c(C)nn(C)c(=O)c1-c1c(-c2ccc(SC)cc2)sc2ccccc12 [1-037] | 3 (Herbicidal rate of 40% or more and less than 70%)
COc1ccc(-c2sc3ccccc3c2-c2c(O)c(C)nn(C)c2=O)cc1OC [1-072] | 5 (Herbicidal rate of 90% or more (almost completely withered))
Cc1nn(C)c(=O)c(-c2c(-c3ccc4c(c3)OCO4)sc3ccccc23)c1O [1-087] | 0 (Herbicidal rate of 5% or less (almost no effect))

Test system: persian speedwell
Assay: Test Example 4: herbicidal effect by soil treatment (Table 19, symbol R)
Format: in vivo, Persian speedwell (Veronica persica)
Conditions: amount of applied herbicide 320 g/ha
Procedure, shortened: as §2

SMILES | herbicidal effect rating, R: persian speedwell
CCCC(=O)Oc1c(C)nn(C)c(=O)c1-c1c(-c2ccc(SC)cc2)sc2ccccc12 [1-037] | 3 (Herbicidal rate of 40% or more and less than 70%)
COc1ccc(-c2sc3ccccc3c2-c2c(O)c(C)nn(C)c2=O)cc1OC [1-072] | 5 (Herbicidal rate of 90% or more (almost completely withered))
Cc1nn(C)c(=O)c(-c2c(-c3ccc4c(c3)OCO4)sc3ccccc23)c1O [1-087] | 5 (Herbicidal rate of 90% or more (almost completely withered))

Test system: persian speedwell
Assay: Test Example 5: herbicidal effect by foliage application, plastic box (Table 20, symbol R)
Format: in vivo, Persian speedwell (Veronica persica)
Conditions: foliage application, 320 g/ha, three weeks after application
Procedure, shortened: as §1

SMILES | herbicidal effect grade, R: persian speedwell
CCCC(=O)Oc1c(C)nn(C)c(=O)c1-c1c(-c2ccc(SC)cc2)sc2ccccc12 [1-037] | 5 (Herbicidal rate of 90% or more (almost completely withered))
COc1ccc(-c2sc3ccccc3c2-c2c(O)c(C)nn(C)c2=O)cc1OC [1-072] | 5 (Herbicidal rate of 90% or more (almost completely withered))
Cc1nn(C)c(=O)c(-c2c(-c3ccc4c(c3)OCO4)sc3ccccc23)c1O [1-087] | 5 (Herbicidal rate of 90% or more (almost completely withered))

Test system: lambsquarters
Assay: Test Example 4: herbicidal effect by soil treatment (Table 19, symbol O)
Format: in vivo, lambsquarters (Chenopodium album)
Conditions: amount of applied herbicide 320 g/ha
Procedure, shortened: as §2

SMILES | herbicidal effect rating, O: lambsquarters
CCCC(=O)Oc1c(C)nn(C)c(=O)c1-c1c(-c2ccc(SC)cc2)sc2ccccc12 [1-037] | 3 (Herbicidal rate of 40% or more and less than 70%)
COc1ccc(-c2sc3ccccc3c2-c2c(O)c(C)nn(C)c2=O)cc1OC [1-072] | 5 (Herbicidal rate of 90% or more (almost completely withered))
Cc1nn(C)c(=O)c(-c2c(-c3ccc4c(c3)OCO4)sc3ccccc23)c1O [1-087] | 5 (Herbicidal rate of 90% or more (almost completely withered))

Test system: blackgrass
Assay: Test Example 4: herbicidal effect by soil treatment (Table 19, symbol J)
Format: in vivo, blackgrass (Alopecurus myosuroides)
Conditions: amount of applied herbicide 320 g/ha
Procedure, shortened: as §2

SMILES | herbicidal effect rating, J: blackgrass
CCCC(=O)Oc1c(C)nn(C)c(=O)c1-c1c(-c2ccc(SC)cc2)sc2ccccc12 [1-037] | 0 (Herbicidal rate of 5% or less (almost no effect))
COc1ccc(-c2sc3ccccc3c2-c2c(O)c(C)nn(C)c2=O)cc1OC [1-072] | 0 (Herbicidal rate of 5% or less (almost no effect))
Cc1nn(C)c(=O)c(-c2c(-c3ccc4c(c3)OCO4)sc3ccccc23)c1O [1-087] | 0 (Herbicidal rate of 5% or less (almost no effect))

Test system: chickweed
Assay: Test Example 4: herbicidal effect by soil treatment (Table 19, symbol P)
Format: in vivo, common chickweed (Stellaria media)
Conditions: amount of applied herbicide 320 g/ha
Procedure, shortened: as §2

SMILES | herbicidal effect rating, P: chickweed
CCCC(=O)Oc1c(C)nn(C)c(=O)c1-c1c(-c2ccc(SC)cc2)sc2ccccc12 [1-037] | 4 (Herbicidal rate of 70% or more and less than 90%)
COc1ccc(-c2sc3ccccc3c2-c2c(O)c(C)nn(C)c2=O)cc1OC [1-072] | 4 (Herbicidal rate of 70% or more and less than 90%)
Cc1nn(C)c(=O)c(-c2c(-c3ccc4c(c3)OCO4)sc3ccccc23)c1O [1-087] | 5 (Herbicidal rate of 90% or more (almost completely withered))

Test system: southern crabgrass
Assay: Test Example 4: herbicidal effect by soil treatment (Table 19, symbol F)
Format: in vivo, southern crabgrass (Digitaria ciliaris)
Conditions: amount of applied herbicide 320 g/ha
Procedure, shortened: as §2

SMILES | herbicidal effect rating, F: southern crabgrass
CCCC(=O)Oc1c(C)nn(C)c(=O)c1-c1c(-c2ccc(SC)cc2)sc2ccccc12 [1-037] | 0 (Herbicidal rate of 5% or less (almost no effect))
COc1ccc(-c2sc3ccccc3c2-c2c(O)c(C)nn(C)c2=O)cc1OC [1-072] | 5 (Herbicidal rate of 90% or more (almost completely withered))
Cc1nn(C)c(=O)c(-c2c(-c3ccc4c(c3)OCO4)sc3ccccc23)c1O [1-087] | 2 (Herbicidal rate of 20% or more and less than 40%)

Test system: lambsquarters
Assay: Test Example 5: herbicidal effect by foliage application, plastic box (Table 20, symbol O)
Format: in vivo, lambsquarters (Chenopodium album)
Conditions: foliage application, 320 g/ha, three weeks after application
Procedure, shortened: as §1

SMILES | herbicidal effect grade, O: lambsquarters
CCCC(=O)Oc1c(C)nn(C)c(=O)c1-c1c(-c2ccc(SC)cc2)sc2ccccc12 [1-037] | 5 (Herbicidal rate of 90% or more (almost completely withered))
COc1ccc(-c2sc3ccccc3c2-c2c(O)c(C)nn(C)c2=O)cc1OC [1-072] | 5 (Herbicidal rate of 90% or more (almost completely withered))
Cc1nn(C)c(=O)c(-c2c(-c3ccc4c(c3)OCO4)sc3ccccc23)c1O [1-087] | 3 (Herbicidal rate of 40% or more and less than 70%)

Test system: oval-leafed pondweed
Assay: Test Example 1: herbicidal activity, application before weed generation under submerged conditions (Table 16, symbol C)
Format: in vivo, oval-leafed pondweed (Monochoria vaginalis)
Conditions: 320 g/ha applied herbicide
Procedure, shortened: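 Alluvial soil was flooded to 4 cm depth, weed seeds were sown mixed and 2.5-leaf rice seedlings were transplanted. On sowing day, the compound's emulsion, diluted in water to a set dose, was applied to the water surface. Plants grew at 25–30 °C and were scored 0–5 after three weeks.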

SMILES | Herbicidal effect on C: oval-leafed pondweed (grade 0-5)
CCCC(=O)Oc1c(C)nn(C)c(=O)c1-c1c(-c2ccc(SC)cc2)sc2ccccc12 [1-037] | 3 (Herbicidal rate of 40% or more and less than 70%)
COc1ccc(-c2sc3ccccc3c2-c2c(O)c(C)nn(C)c2=O)cc1OC [1-072] | 0 (Herbicidal rate of 5% or less (almost no effect))
Cc1nn(C)c(=O)c(-c2c(-c3ccc4c(c3)OCO4)sc3ccccc23)c1O [1-087] | 0 (Herbicidal rate of 5% or less (almost no effect))

Test system: green foxtail
Assay: Test Example 4: herbicidal effect by soil treatment (Table 19, symbol G)
Format: in vivo, green foxtail (Setaria viridis)
Conditions: amount of applied herbicide 320 g/ha
Procedure, shortened: as §2

SMILES | herbicidal effect rating, G: green foxtail
CCCC(=O)Oc1c(C)nn(C)c(=O)c1-c1c(-c2ccc(SC)cc2)sc2ccccc12 [1-037] | 5 (Herbicidal rate of 90% or more (almost completely withered))
COc1ccc(-c2sc3ccccc3c2-c2c(O)c(C)nn(C)c2=O)cc1OC [1-072] | 5 (Herbicidal rate of 90% or more (almost completely withered))
Cc1nn(C)c(=O)c(-c2c(-c3ccc4c(c3)OCO4)sc3ccccc23)c1O [1-087] | 5 (Herbicidal rate of 90% or more (almost completely withered))

Test system: Japanese bulrush
Assay: Test Example 2: herbicidal activity, application during weed generation under submerged conditions (Table 17, symbol B)
Format: in vivo, Japanese bulrush (Schoenoplectus juncoides)
Conditions: AAH 320 g/ha; application during weed generation, submerged conditions
Procedure, shortened: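 In this pot test, flooded alluvial soil (water depth 4 cm) holds all three species sown as a mixture. Once seedlings have one to two leaves, the compound's emulsion, thinned with water to the intended dose, is poured on the water; grading follows after three weeks on the earlier criteria.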

SMILES | herbicidal effect rating, B: Japanese bulrush
CCCC(=O)Oc1c(C)nn(C)c(=O)c1-c1c(-c2ccc(SC)cc2)sc2ccccc12 [1-037] | 1 (Herbicidal rate of 5% or more and less than 20%)
COc1ccc(-c2sc3ccccc3c2-c2c(O)c(C)nn(C)c2=O)cc1OC [1-072] | 3 (Herbicidal rate of 40% or more and less than 70%)
Cc1nn(C)c(=O)c(-c2c(-c3ccc4c(c3)OCO4)sc3ccccc23)c1O [1-087] | 1 (Herbicidal rate of 5% or more and less than 20%)
